The subject of this test is HMOX1 expression in H4 cell line. Put plainly: HMOX1 gene expression by qRT-PCR in H4 cell line treated with 5-aza-2′-deoxycytidine. In kind it is cell-based, human. The following applies: normal H4 cell line, 10 μM for 3 days, normalized to GAPDH. As for the experimental part:
Human neuroglioblastoma cell line, H4 was cultured in a Dulbecco's modified Eagle medium containing 10% fetal bovine serum, 100 U/mL penicillin, 100 μg/mL streptomycin and 2 mM L-glutamine, and APP695-Swedish mutant (K595N/M596L)-expressing Alzheimer's disease model cell line, H4-sw was cultured in the H4 culture medium supplemented with 500 μg/mL geneticine.
Total RNAs were extracted from the cell line and the brain tissues using an RNeasy mini kit (Qiagen). The extraction method was performed according to the manufacturer's manual. The extracted total RNAs were quantified using a spectrophotometer, and RNA degradation was examined by electrophoresis in a 1% agarose gel.
For cDNA synthesis, Superscript II reverse transcriptase (Invitrogen) was used. 1 μg of total RNA and 50 ng of oligo dT were denatured at 70° C. for 10 minutes, and then a reaction mixture of 4 μA of 5×RT buffer, 2 μA of […], 4 μA of 2.5 mM dNTP mixture, 200 units of Superscript II reverse transcriptase, 10 units of RNase inhibitor was added thereto. 20 μA of the reaction mixture was reacted at 25° C. for 10 minutes, at 42° C. for 50 minutes, and at 95° C. for 5 minutes for cDNA synthesis. The product was diluted at 1:4, and 2 μA thereof was used as a template of qRT-PCR. […]

`Nc1ncn([C@H]2C[C@H](O)[C@@H](CO)O2)c(=O)n1` [5-aza-2′-deoxycytidine]: the HMOX1 expression result is reported as “increased”.

The values above are taken from US9133521B2, “Composition for diagnosing Alzheimer's disease using methylation status of HMOX1 gene and method for diagnosing Alzheimer's disease using the same” (Ewha University—Industry Collaboration Foundation, priority 2012, dated 2015).
